pIC50: −log10 of the molar value.
Legend:
[1] = target: human JAK2 (Homo sapiens (Human), UniProt O60674); details: read-out: JAK2 IC50
[2] = target: human FAK (Homo sapiens (Human), UniProt Q05397); details: read-out: FAK IC50
Chain of human FAK (Q05397 whole entry): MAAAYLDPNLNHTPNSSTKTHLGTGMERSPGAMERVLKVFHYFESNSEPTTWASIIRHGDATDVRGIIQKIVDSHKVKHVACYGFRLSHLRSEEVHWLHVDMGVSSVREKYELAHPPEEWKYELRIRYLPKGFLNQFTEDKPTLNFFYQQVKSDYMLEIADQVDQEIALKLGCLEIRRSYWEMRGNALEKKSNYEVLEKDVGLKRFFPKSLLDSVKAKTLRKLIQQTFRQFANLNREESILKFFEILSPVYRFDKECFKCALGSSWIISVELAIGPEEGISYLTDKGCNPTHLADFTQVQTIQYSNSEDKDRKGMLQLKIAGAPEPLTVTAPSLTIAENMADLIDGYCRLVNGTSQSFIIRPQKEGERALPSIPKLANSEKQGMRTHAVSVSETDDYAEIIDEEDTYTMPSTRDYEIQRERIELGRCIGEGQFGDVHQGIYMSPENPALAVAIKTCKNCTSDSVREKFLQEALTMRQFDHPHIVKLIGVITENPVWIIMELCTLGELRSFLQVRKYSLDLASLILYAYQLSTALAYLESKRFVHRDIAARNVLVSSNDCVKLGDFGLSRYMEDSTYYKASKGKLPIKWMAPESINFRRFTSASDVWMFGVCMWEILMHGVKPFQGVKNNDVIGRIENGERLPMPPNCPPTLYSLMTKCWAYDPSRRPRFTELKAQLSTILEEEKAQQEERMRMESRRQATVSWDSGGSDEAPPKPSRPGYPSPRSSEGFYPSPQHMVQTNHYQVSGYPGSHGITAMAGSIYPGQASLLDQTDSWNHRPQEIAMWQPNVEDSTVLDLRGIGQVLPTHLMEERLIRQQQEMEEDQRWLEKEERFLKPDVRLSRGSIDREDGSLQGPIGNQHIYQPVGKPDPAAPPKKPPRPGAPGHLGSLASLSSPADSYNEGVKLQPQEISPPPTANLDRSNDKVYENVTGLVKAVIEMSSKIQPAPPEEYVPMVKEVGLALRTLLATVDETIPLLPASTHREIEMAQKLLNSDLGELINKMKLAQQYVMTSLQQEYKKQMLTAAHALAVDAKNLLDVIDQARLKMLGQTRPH

Chain of human JAK2 (O60674 815-1132): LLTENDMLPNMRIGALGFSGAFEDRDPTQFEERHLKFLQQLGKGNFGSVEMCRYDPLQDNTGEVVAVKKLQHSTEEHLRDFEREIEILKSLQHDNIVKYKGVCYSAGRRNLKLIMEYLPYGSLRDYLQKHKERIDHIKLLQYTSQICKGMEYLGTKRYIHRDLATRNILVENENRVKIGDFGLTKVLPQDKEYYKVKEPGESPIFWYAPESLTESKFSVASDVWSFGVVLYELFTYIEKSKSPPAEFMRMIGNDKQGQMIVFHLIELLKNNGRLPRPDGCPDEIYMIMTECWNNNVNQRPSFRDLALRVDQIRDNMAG

Compound | pIC50 [1] | pIC50 [2]
CN(C)C(=O)N1CCc2ccc(Nc3nc4c(-c5cc(Cl)ccc5OCC(F)F)cccn4n3)cc2CC1 [Example 382, 7-{8-[5-Chloro-2-(2,2-difluoro-ethoxy)-phenyl]-[1,2,4]triazolo[1,5-a]pyridin-2-ylamino}-1,2,4,5-tetrahydro-3-benzazepine-3-carboxylic acid dimethylamide] | 6.70 | 5.70
CN(c1ncccc1CNc1cccn2nc(Nc3ccc(OCCN4CCCC4)cc3)nc12)S(C)(=O)=O [Example 124, N-Methyl-N-[3-({2-[4-(2-pyrrolidin-1-yl-ethoxy)-phenylamino]-[1,2,4]triazolo[1,5-a]pyridin-8-ylamino}-methyl)-pyridin-2-yl]-methanesulfonamide] | 7.39 | 7.22
COc1ccc(C(F)(F)F)cc1-c1cccc2nc(Nc3ccc4c(c3)CCNCC4)nn12 [Example 234, [5-(2-Methoxy-5-trifluoromethyl-phenyl)-[1,2,4]triazolo[1,5-a]pyridine-2-yl]-(2,3,4,5-tetrahydro-1H-benzo[d]azepin-7-yl)-amine] | 7.63 | 6.26
CS(=O)(=O)c1ccc(-c2cccn3nc(Nc4cccc(N5CCN(CCO)CC5)c4)nc23)cc1 [Example 152, 2-(4-{3-[8-(4-Methanesulfonyl-phenyl)-[1,2,4]triazolo[1,5-a]pyridin-2-ylamino]-phenyl}-piperazin-1-yl)-ethanol] | 8.63 | 6.00
CN1CCN(c2ccc(Nc3nc4cccc(-c5ccc(NS(C)(=O)=O)cc5)n4n3)cc2)CC1 [Example 84, N-(4-{2-[4-(4-Methyl-piperazin-1-yl)-phenylamino]-[1,2,4]triazolo[1,5-a]pyridin-5-yl}-phenyl)-methanesulfonamide] | 8.55 | 5.64
CN(C)C(=O)CN1CCC(c2ccc(Nc3nc4c(-c5ccc[nH]c5=O)cccn4n3)cc2)CC1 [Example 275, N,N-Dimethyl-2(4-{4-[8-(2-oxo-1,2-dihydro-pyridin-3-yl)-[1,2,4]triazolo[1,5-a]pyridine-2-ylamino]-phenyl}-piperidin-1-yl)-acetamide] | 6.57 | 5.70
CN1CCN(c2ccc(Nc3nc4c(-c5ccc(S(C)(=O)=O)cc5)cc(C(F)(F)F)cn4n3)cn2)CC1 [Example 104, [8-(4-Methanesulfonyl-phenyl)-6-trifluoromethyl-[1,2,4]triazolo[1,5-a]pyridin-2-yl]-[6-(4-methyl-piperazin-1-yl)-pyridin-3-yl]-amine] | 6.03 | 6.17
CN1CCN(c2cccc(N(c3cccc(N4CCN(C)CC4)c3)c3nc4c(-c5ccc(S(C)(=O)=O)cc5)cc(F)cn4n3)c2)CC1 [Example 105, [6-Fluoro-8-(4-methanesulfonyl-phenyl)-[1,2,4]triazolo[1,5-a]pyridin-2-yl]-bis-[3-(4-methyl-piperazin-1-yl)-phenyl]-amine] | 6.49 | 5.98
CN1CCN(c2cccc(Nc3nc4c(NCc5ccccc5F)cccn4n3)c2)CC1 [Example 395, N(8)-(2-Fluoro-benzyl)-N(2)-[3-(4-methyl-piperazin-1-yl)-phenyl]-[1,2,4]triazolo[1,5-a]pyridine-2,8-diamine] | 6.74 | 5.83
COc1ncc(C(F)(F)F)cc1-c1cccn2nc(Nc3ccc(C4CCN(CC(=O)N(C)C)CC4)cc3)nc12 [Example 279, 2-(4-{4-[8-(2-Methoxy-5-trifluoromethyl-pyridin-3-yl)-[1,2,4]triazolo[1,5-a]pyridin-2-ylamino]-phenyl}-piperidin-1-yl)-N,N-dimethyl-acetamide] | 7.13 | 5.00
COc1ccc(Nc2nc3c(-c4cnn(S(C)(=O)=O)c4)cccn3n2)cc1 [Example 42, [8-(1-Methanesulfonyl-1H-pyrazol-4-yl)-[1,2,4]triazolo[1,5-a]pyridin-2-yl]-(4-methoxy-phenyl)-amine] | 8.52 | 6.29
CCOc1ccc(Cl)cc1-c1cccn2nc(Nc3ccc4c(c3)CCNCC4)nc12 [Example 310, [8-(5-Chloro-2-ethoxy-phenyl]-[1,2,4]triazolo[1,5a]pyridine-2-yl]-(2,3,4,5-tetrahydro-benzo[d]azepin-7-yl)-amine] | 7.48 | 5.91
CN1CCC(c2cccc(Nc3nc4c(-c5ccccc5N(C)S(C)(=O)=O)cccn4n3)c2)CC1 [Example 130, N-Methyl-N-(2-{2-[3-(1-methyl-piperidin-4-yl)-phenylamino]-[1,2,4]triazolo[1,5-a]pyridin-8-yl}-phenyl)-methanesulfonamide] | 5.92 | 5.52
CN1CCN(c2cccc(Nc3nc4cncc(-c5ccc(S(C)(=O)=O)cc5)n4n3)c2)CC1 [Example 107, [5-(4-Methanesulfonyl-phenyl)-[1,2,4]triazolo[1,5-a]pyrazin-2-yl]-[3-(4-methyl-piperazin-1-yl)-phenyl]-amine] | 6.51 | 6.07
CN1CCN(c2ccc(Nc3nc4c(CCc5ccccc5N(C)S(C)(=O)=O)cccn4n3)cc2)CC1 [Example 194, N-Methyl-N-[2-(2-{2-[4-(4-methyl-piperazin-1-yl)-phenylamino]-[1,2,4]triazolo[1,5-a]pyridin-8-yl}-ethyl)-phenyl]-methanesulfonamide] | 6.66 | 7.38
CS(=O)(=O)c1ccc(-c2cccn3nc(NCc4cccnc4)nc23)cc1 [Example 408, [8-(4-Methanesulfonyl-phenyl)-[1,2,4]triazolo[1,5-a]pyridin-2-yl]-pyridin-3-ylmethyl-amine] | 5.56 | 5.00
CC(C)S(=O)(=O)c1ccc(-c2cccn3nc(Nc4ccc(N5CCN(C)CC5)cc4)nc23)cc1 [Example 52, [4-(4-Methyl-piperazin-1-yl)-phenyl]-{8-[4-(propane-2-sulfonyl)-phenyl]-[1,2,4]triazolo[1,5-a]pyridin-2-yl}-amine] | 8.68 | 6.51
CN1CCN(c2cccc(Nc3nc4c(Nc5ccccc5CN(C)S(C)(=O)=O)cccn4n3)c2)CC1 [Example 172, N-Methyl-N-(2-{2-[3-(4-methyl-piperazin-1-yl)-phenylamino]-[1,2,4]triazolo[1,5-a]pyridin-8-ylamino}-benzyl)-methanesulfonamide] | 6.34 | 5.52
CCCOc1ccc(Cl)cc1-c1cccn2nc(Nc3ccc4c(c3)CCNCC4)nc12 [Example 307, [8-(5-Chloro-2-propoxy-phenyl]-[1,2,4]triazolo[1,5a]pyridine-2-yl]-(2,3,4,5-tetrahydro-benzo[d]azepin-7-yl)-amine] | 6.08 | 5.98
CN1CCN(C2CCN(c3cccc(Nc4nc5c(-c6ccc(S(C)(=O)=O)cc6)cccn5n4)c3)CC2)CC1 [Example 58, [8-(4-Methanesulfonyl-phenyl)-[1,2,4]triazolo[1,5-a]pyridin-2-yl]-{3-[4-(4-methyl-piperazin-1-yl)-piperidin-1-yl]-phenyl}-amine] | 8.82 | 5.62
CC(=O)Nc1cccc(Nc2nc3c(-c4ccc(S(C)(=O)=O)cc4)cccn3n2)c1 [Example 267, N-{3-[8-(4-Methanesulfonyl-phenyl)-[1,2,4]triazolo[1,5-a]pyridin-2-ylamino]-phenyl}-acetamide] | 8.46 | 5.00

Reference: patent US8501936B2 (priority 2009, dated 2013)
